Measured values taken from patent US10196357B2, “Biaryl compositions and methods for modulating a kinase cascade” (Athenex, Inc., priority 2007, dated 2019).
pIC50: −log10 of the molar value. “And” between values parts separate entries of the source, which are not always exact repeats. Identical values can stand only once. Like-named read-outs stand apart in the source and are kept apart here.

Columns and labels:
[1] = system: wild-type aywl strain of HBV; experiment: HBV primary assay (HepG2-2.2.15 antiviral assay); assay type: cell-based; details: Test Concentration 1 μM
Procedure: The HBV primary assay developed was conducted similarly to that described by Korba et al., (Antiviral Res. 15: 217-228 (1991) and Antiviral Res. 19: 55-70 (1992)) with the exception that viral DNA detection and quantification have been improved and simplified (Korba et al., Antiviral Res. 19: 55-70 (1992)).
Compound 38 (KX2-377), Compound 136 (KX2-393), and Compound 137 (KX2-394) were evaluated for potential anti-HBV activity using a single high-test concentration of compounds in the standardized HepG2-2.2.15 antiviral assay. The HepG2-2.2.15 is a stable cell line producing high levels of the wild-type aywl strain of HBV. Briefly, HepG2-2.2.15 cells were plated in 96-well plates. Only the interior wells were utilized to reduce “edge effects” observed during cell culture; the exterior wells are filled with complete medium to help minimize sample evaporation. On the following day, the confluent monolayer of HepG2-2.2.15 cells was washed and the medium is replaced with complete medium containing test concentrations of a test article in triplicate. 3TC was used as the positive control, while media alone was added to cells as the untreated control. Three days later the culture medium was replaced with fresh medium containing the appropriately diluted drug. Six days following the initial administration of the test compound, the cell culture supernatant was collected, treated with pronase and DNAse and then used in a real-time quantitative TaqMan PCR assay for direct measurement of HBV DNA copies using an ABI Prism 7900 sequence detection system (Applied Biosystems, Foster City, Calif.).
The antiviral activity of each test compound was calculated by comparing its HBV DNA copies against that of the untreated control cells (100%) to derive percent inhibition level. After removing the supernatant, the remaining cells were subject to CellTiter 96 Aqueous One (Promega, Madison, Wis.) solution cell proliferation assay (MTS-based) to measure cell viability. Cytotoxicity of the compound was determined by comparing its cell viability with that of the untreated cell control to derive percentage of the cell control.

[2] = plasma pharmacokinetics after IV administration; assay type: in vivo, Male CD-1 mice; details: single IV dose 5 mg/kg
Procedure: (§1) [drawing 435] are described below. Plasma concentrations were measured in mice after oral and IV administration. Both oral and IV doses were formulated in saline. Male CD-1 mice were dosed after an overnight fast and fed 4 hours post-dose.
A single IV dose of 139 was administered to male CD-1 mice intravenously at 5 mg/kg (dose volume of 3 mL/kg). The plasma concentration of 139 was measured at 0 min, 5 min, 15 min, 30 min, 1 h, 3 h, 6 h, and 12 h time points. A liquid-liquid extraction procedure was used to isolate the analyte and internal standard from mice plasma. After the extract was dried and reconstituted, the sample was directly injected into a liquid chromatography/mass spectrometry (LC/MS) system. HPLC conditions were as follows: • HPLC System: Shimadzu SCL-10 System • Analytical Column: Aquasil C18 5 μm 50×2.1 mm column. • Column Temperature: Ambient temperature • Autosampler Temperature: Ambient temperature • Mobile Phase A) 10 mM Ammonium formate in water (pH4). • B) Acetonitrile. • Flow Rate: 0.6 mL/min • Injection Volume: 4 μL • Gradient:
• Mass spectrometry conditions were as follows: • Instrument: ABI Sciex API 4000 • Mode: ESI+ • Experiment: MRM (multiple reaction monitoring) • Transitions: 139: m/z 480.1→127.1 (Rt=3.8 minute)

[3] = plasma pharmacokinetics after oral administration; assay type: in vivo, Male CD-1 mice
Procedure: as §1
[…] The plasma concentration of 139 was measured at 0 min, 30 min, 1 h, 3 h, 6 h, 12 h, and 24 h time points. As discussed above for the i.v. administration, the analyte was extracted and analyzed by HPLC/mass spec.

GL261 glioma cells = experiment: intracranial GL261 glioma survival study; assay type: in vivo, C57BL/6 mice; details: 5 mg/kg weekly ×1 oral; C57BL/6 mice, intracranial GL261
Procedure: (§2) A brain tumor mouse xenograft study was conducted comparing KX2-361 and KX2-391 (KXO1) to Temodar®. The studies were conducted in C57BL/6 mice. GL261 glioma cells (1×10^5 in 5 μl DMEM) were implanted intracranial coordinates: bregma, lateral 2.0 mm, anterior 1.2 mm, 3.0 mm depth dura. Treatment was initiated 3 days post implantation. The groups were as follows (all doses in 100 μl H2O):
The median survival range and the log-rank (Mantel-Cox) statistical test results comparing the survival distributions of the samples.

[4] = body weight in GL261 glioma survival study; assay type: in vivo; details: Temodar 5 mg/kg, C57BL/6 mice
Procedure: as §2
FIGS. 49A-E show the weight gain in each of the C57BL/6 mice in the different treatment groups. The average weight at endpoint for each of the treatment groups is shown below in Table 30. FIG. 50 is a graph showing the average weights over a 40-day period for each of the treatment groups.

[5] = system: lung cancer cell line A549; experiment: tumor growth inhibition, A549; assay type: cell-based, Human; details: Homo sapiens, A549, A549 (Lung) cells
Source text: (§3) Growth Inhibition. […] T1 values≤T0 values were designated as T, cytotoxicity.

c-Src 3T3 cells = experiment: BrdU cell growth inhibition, c-Src 3T3; assay type: cell-based, mouse; details: Mus musculus; c-Src 3T3 (c-Src527F/NIH3T3) cells; read-out: GI50
In short: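 c-Src 3T3 cells on poly-D-lysine plates in DMEM with 2% FBS, L-glutamine, pyruvate and 10 mM HEPES. Compounds came from 20 mM DMSO stocks diluted in DMEM/10% FBS. Proliferation was read by colorimetric BrdU-incorporation ELISA, and GI50 was extrapolated from growth relative to time-zero and untreated controls.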

isolated Src = isolated Src (Homo sapiens, UniProt P12931); experiment: titration against isolated Src; assay type: biochemical; details: titration data
isolated Src, sequence (P12931 whole entry): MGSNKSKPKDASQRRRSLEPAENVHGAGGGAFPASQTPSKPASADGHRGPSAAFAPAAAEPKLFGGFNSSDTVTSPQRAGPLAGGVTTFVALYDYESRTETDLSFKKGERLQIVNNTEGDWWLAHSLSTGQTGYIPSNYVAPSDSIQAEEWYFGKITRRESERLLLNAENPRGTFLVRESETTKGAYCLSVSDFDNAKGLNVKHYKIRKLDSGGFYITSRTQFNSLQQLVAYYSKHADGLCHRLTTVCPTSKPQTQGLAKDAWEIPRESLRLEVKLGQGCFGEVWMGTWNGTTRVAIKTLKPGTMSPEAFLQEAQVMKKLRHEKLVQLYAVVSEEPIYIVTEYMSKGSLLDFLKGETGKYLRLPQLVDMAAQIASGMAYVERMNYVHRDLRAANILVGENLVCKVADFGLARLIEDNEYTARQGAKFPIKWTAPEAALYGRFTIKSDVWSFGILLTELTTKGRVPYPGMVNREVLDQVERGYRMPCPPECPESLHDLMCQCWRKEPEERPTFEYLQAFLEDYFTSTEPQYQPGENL

isolated FAK = isolated FAK (Homo sapiens, UniProt Q05397); experiment: titration against isolated FAK; assay type: biochemical; details: titration data
isolated FAK, sequence (Q05397 whole entry): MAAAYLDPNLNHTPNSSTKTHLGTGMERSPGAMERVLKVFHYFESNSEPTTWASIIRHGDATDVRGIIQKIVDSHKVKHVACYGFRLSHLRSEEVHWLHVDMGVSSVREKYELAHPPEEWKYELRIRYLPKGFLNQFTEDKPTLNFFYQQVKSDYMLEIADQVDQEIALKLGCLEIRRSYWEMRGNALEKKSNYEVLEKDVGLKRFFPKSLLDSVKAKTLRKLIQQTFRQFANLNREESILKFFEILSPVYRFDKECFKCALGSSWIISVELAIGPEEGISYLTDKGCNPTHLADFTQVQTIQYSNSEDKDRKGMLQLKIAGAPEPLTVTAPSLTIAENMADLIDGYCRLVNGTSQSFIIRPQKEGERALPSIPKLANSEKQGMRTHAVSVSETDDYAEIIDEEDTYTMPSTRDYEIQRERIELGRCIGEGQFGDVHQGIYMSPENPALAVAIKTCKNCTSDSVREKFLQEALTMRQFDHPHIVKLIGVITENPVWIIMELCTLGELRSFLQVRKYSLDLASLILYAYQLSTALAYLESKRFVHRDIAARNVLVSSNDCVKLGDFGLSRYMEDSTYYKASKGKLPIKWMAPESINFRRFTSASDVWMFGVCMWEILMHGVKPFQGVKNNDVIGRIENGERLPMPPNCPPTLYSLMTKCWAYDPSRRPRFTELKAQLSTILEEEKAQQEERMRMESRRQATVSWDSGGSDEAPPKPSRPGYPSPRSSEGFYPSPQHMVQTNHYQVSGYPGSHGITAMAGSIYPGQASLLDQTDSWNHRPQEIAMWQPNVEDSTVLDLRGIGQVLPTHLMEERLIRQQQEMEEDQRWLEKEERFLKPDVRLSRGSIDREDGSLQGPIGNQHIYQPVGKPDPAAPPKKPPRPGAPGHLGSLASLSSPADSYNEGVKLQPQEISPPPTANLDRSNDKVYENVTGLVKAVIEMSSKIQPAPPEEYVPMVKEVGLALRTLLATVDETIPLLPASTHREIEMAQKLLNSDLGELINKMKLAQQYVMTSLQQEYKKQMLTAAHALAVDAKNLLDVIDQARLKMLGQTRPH

SKOV-3 (Ovarian) = experiment: growth inhibition (BrdU), SKOV-3; assay type: cell-based, Human; details: Homo sapiens, SK-OV-3; SKOV-3 (Ovarian) cells
Source text: as §3

L3.6pl cells = experiment: growth inhibition (BrdU), L3.6pl; assay type: cell-based, human; details: Homo sapiens, L3.6pl, L3.6pl (Pancreas) cells, single agent
Source text: L3.6pl cells are previously described in Trevino et al. Am J Pathol.

[6] = male, CD-1, mouse, single oral dose 25 mg/kg

## Nc1ccn([C@@H]2CS[C@H](CO)O2)c(=O)n1 [Compound 3TC, 3TC, reference compound]
[1]
  Antiviral Activity Percent inhibition of cell control: 92.0%
  Interpretation: Active

## CN1CCN(CCOc2ccc(-c3ccc(CC(=O)NCc4cccc(F)c4)cc3)c(F)c2)CC1 [Compound 139, 2-(2′-fluoro-4′-(2-(4-methylpiperazin-1-yl)ethoxy)biphenyl-4-yl)-N-(3-fluorobenzyl)acetamide]
[2]; male, CD-1, mouse, plasma, iv, 5 mg/kg, 5 min, read-out: Plasma Concentrations, Group A, B, C
  concentration at 5 min: 1200 ng/mL
[2]; male, CD-1, mouse, plasma, iv, 5 mg/kg, 5 min, read-out: Plasma Concentrations, Mean
  concentration at 5 min: 1250 ng/mL
[2]; male, CD-1, mouse, plasma, iv, 5 mg/kg, 15 min, read-out: Plasma Concentrations, Group A, B, C
  concentration at 15 min: 273 ng/mL
[2]; male, CD-1, mouse, plasma, iv, 5 mg/kg, 15 min, read-out: Plasma Concentrations, Mean
  concentration at 15 min: 329 ng/mL
[2]; male, CD-1, mouse, plasma, iv, 5 mg/kg, 30 min, read-out: Plasma Concentrations, Group A, B, C
  concentration at 30 min: 500 ng/mL
[2]; male, CD-1, mouse, plasma, iv, 5 mg/kg, 30 min, read-out: Plasma Concentrations, Mean
  concentration at 30 min: 382 ng/mL
[2]; male, CD-1, mouse, plasma, iv, 5 mg/kg, 1 hr, read-out: Plasma Concentrations, Group A, B, C
  concentration at 1 h: 186 ng/mL
[2]; male, CD-1, mouse, plasma, iv, 5 mg/kg, 1 hr, read-out: Plasma Concentrations, Mean
  concentration at 1 h: 178 ng/mL
[2]; male, CD-1, mouse, plasma, iv, 5 mg/kg, 3 hr, read-out: Plasma Concentrations, Mean
  concentration at 3 h: 207 ng/mL
[2]; male, CD-1, mouse, plasma, iv, 5 mg/kg, 6 hr, read-out: Plasma Concentrations, Mean
  concentration at 6 h: 43.2 ng/mL
[2]; male, CD-1, mouse, plasma, iv, 5 mg/kg, BLQ = 0, read-out: Plasma Concentrations, Mean
  concentration at 12 h: 3.67 ng/mL
[2]; male, CD-1, mouse, plasma, iv, 5 mg/kg, read-out: Plasma Concentrations, Group A, B, C
  concentration at 12 h: 11 ng/mL
[2]; male, CD-1, mouse, plasma
  AUC(0-inf): 1420 ng·h/mL
  AUC(0-t): 1410 ng·h/mL
  C0: 2420 ng/mL
  MRT: 2.3 h
  clearance: 58.7 mL/min/kg
[2]; male, CD-1, mouse, plasma, estimated from 3, 6, 12 hours
  half-life: 1.6 h
[2]; male, CD-1, mouse, plasma, read-out: Vss
  Vd: 8.15 L/kg
[2]; plasma
  % AUC Extrap: 0.6%
  AUC0-∞/Dose: 284.1 kg·ng·h/mL/mg
[2]; 5 min, 5 mg/kg
  Plasma Concentrations, Group A, B, C: 1287 ng/mL and 1260 ng/mL
[2]; 15 min, 5 mg/kg
  Plasma Concentrations, Group A, B, C: 306 ng/mL and 407 ng/mL
[2]; 30 min, 5 mg/kg
  Plasma Concentrations, Group A, B, C: 367 ng/mL and 279 ng/mL
[2]; 1 hr, 5 mg/kg
  Plasma Concentrations, Group A, B, C: 210 ng/mL and 137 ng/mL
[3]; male, CD-1, mouse, (Mean AUC0-∞ oral/oral dose)/(Mean AUC0-∞ IV/IV dose)×100%, 25 mg/kg oral, 5 mg/kg IV, read-out: Estimated bioavailability
  bioavailability: 34.4%
[3]; male, CD-1, mouse, po, 25 mg/kg, single PO dose 25 mg/kg, 30 min, read-out: Plasma Concentrations, Mean
  concentration at 30 min: 318 ng/mL
[3]; male, CD-1, mouse, po, 25 mg/kg, single PO dose 25 mg/kg, 1 hr, read-out: Plasma Concentrations, Mean
  concentration at 1 h: 142 ng/mL
[3]; male, CD-1, mouse, po, 25 mg/kg, single PO dose 25 mg/kg, 3 hr, read-out: Plasma Concentrations, Mean
  concentration at 3 h: 330 ng/mL
[3]; male, CD-1, mouse, po, 25 mg/kg, single PO dose 25 mg/kg, 6 hr, read-out: Plasma Concentrations, Mean
  concentration at 6 h: 119 ng/mL
[3]; male, CD-1, mouse, po, 25 mg/kg, single PO dose 25 mg/kg, 12 hr, read-out: Plasma Concentrations, Mean
  concentration at 12 h: 56.6 ng/mL
[3]; male, CD-1, mouse, po, 25 mg/kg, single PO dose 25 mg/kg, BLQ = 0, read-out: Plasma Concentrations, Mean
  concentration at 24 h: 15.6 ng/mL
[3]; male, CD-1, mouse, po, 25 mg/kg, single PO dose 25 mg/kg, read-out: Plasma Concentrations, Group A, B, C
  concentration at 24 h: 31.2 ng/mL
[3]; [6]
  AUC(0-inf): 2440 ng·h/mL
  AUC(0-t): 2300 ng·h/mL
  Cmax: 330 ng/mL
  MRT: 7.7 h
  Tmax: 3 h
[3]; male, CD-1, mouse, single oral dose 25 mg/kg, estimated from 6, 12, 24 hours
  half-life: 6.2 h
[3]; single oral dose 25 mg/kg
  % AUC Extrap: 5.7%
  AUC0-∞/Dose: 97.6 kg·ng·h/mL/mg

## Cn1nnc2c(C(N)=O)ncn2c1=O [Temodar ®, Temodar®, reference compound]
GL261 glioma cells
  Median survival: 29
  survival Range: 26-29
[4]
  Average weight at endpoint: 13.3 g

## C#Cc1cccc(Nc2ncnc3cc(OCCOC)c(OCCOC)cc23)c1 [Tarceva, erlotinib, reference compound]
[5]
  GI50: 1740 nM

## CN1CCN(CCOc2ccc(-c3ccc(CC(=O)NCc4cccc(F)c4)nc3)c(F)c2)CC1 [KX2-394]
c-Src 3T3 cells
  GI50: 13 nM
Isolated Src
  pIC50: 5.30
Isolated FAK
  pIC50: < 4.32

## CC(=O)O[C@H]1C(=O)[C@@]2(C)[C@H]([C@H](OC(=O)c3ccccc3)[C@]3(O)C[C@H](OC(=O)[C@H](O)[C@@H](NC(=O)c4ccccc4)c4ccccc4)C(C)=C1C3(C)C)[C@]1(OC(C)=O)CO[C@@H]1C[C@@H]2O [taxol, paclitaxel, reference compound]
SKOV-3 (Ovarian)
  GI50: 3.9 nM

## Nc1ccn([C@@H]2O[C@H](CO)[C@@H](O)C2(F)F)c(=O)n1 [Gemcitabine, gemcitabine, reference compound]
L3.6pl cells
  GI50: 2 nM
